This note sets out measurements from ChEMBL document CHEMBL3091293, “The synthesis and biodistribution of [(11)C]metformin as a PET probe to study hepatobiliary transport mediated by the multi-drug and toxin extrusion transporter 1 (MATE1) in vivo” (Bioorg Med Chem, 2013).

Series [1] deals with Plasma. As to the kind of experiment: Unbound plasma concentration in ddY mouse at 5 mg/kg. It is filed as ADME, organism-based. Details: dose 5 mg/kg. The settings on record: in vivo.
Series [2] deals with Plasma. Nature of the series: Plasma concentration in ddY mouse at 5 mg/kg. The note with it: in vivo. Details: dose 5 mg/kg. It is filed as ADME, organism-based.
In series [3] the target is T1, Solute carrier family 22 member 1 (Mus musculus, UniProt O08966).
T1 sequence (O08966 whole entry): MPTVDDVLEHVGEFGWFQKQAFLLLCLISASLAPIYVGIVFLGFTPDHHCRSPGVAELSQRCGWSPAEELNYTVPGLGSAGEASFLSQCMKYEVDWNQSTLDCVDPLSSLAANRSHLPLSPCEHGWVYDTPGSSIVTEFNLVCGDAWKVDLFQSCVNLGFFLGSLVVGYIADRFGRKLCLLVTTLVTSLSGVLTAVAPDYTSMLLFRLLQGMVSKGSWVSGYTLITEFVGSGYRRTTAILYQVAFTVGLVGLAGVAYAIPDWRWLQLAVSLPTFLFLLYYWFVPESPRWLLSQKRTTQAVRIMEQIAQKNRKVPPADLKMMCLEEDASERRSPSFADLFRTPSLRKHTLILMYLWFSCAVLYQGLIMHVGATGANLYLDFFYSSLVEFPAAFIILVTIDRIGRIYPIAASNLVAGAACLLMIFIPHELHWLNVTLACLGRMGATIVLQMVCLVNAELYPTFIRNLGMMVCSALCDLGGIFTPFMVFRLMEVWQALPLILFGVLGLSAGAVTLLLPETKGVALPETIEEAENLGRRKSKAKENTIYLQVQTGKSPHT
Nature of the series: Inhibition of mouse Oct1 transfected in HEK293 cells assessed as uptake of [14C]-TEA preincubated for 15 mins by liquid scintillation counting analysis. The series is classed as cell-based.

The target in series [4] is T2, Multidrug and toxin extrusion protein 1 (Mus musculus, UniProt Q8K0H1).
T2 sequence (Q8K0H1 whole entry): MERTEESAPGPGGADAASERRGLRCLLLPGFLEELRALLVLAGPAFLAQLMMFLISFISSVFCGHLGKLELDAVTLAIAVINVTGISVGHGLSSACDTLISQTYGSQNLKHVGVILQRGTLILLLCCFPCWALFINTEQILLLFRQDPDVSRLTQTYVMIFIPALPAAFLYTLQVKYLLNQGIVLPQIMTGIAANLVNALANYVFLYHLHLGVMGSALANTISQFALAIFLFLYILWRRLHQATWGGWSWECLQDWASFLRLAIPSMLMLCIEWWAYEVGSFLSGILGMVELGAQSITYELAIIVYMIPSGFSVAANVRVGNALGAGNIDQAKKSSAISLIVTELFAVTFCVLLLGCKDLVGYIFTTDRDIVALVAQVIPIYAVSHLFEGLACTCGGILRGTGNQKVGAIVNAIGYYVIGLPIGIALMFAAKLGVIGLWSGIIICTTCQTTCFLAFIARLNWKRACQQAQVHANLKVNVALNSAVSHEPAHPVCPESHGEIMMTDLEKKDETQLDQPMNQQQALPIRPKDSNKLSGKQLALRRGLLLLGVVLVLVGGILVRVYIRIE
Nature of the series: Inhibition of mouse Mate1 transfected in HEK293 cells assessed as uptake of [14C]-TEA preincubated for 15 mins by liquid scintillation counting analysis. The series is classed as cell-based.

pKi: −log10 of the molar value.

For the molecule `CCc1nc(N)nc(N)c1-c1ccc(Cl)cc1` [PYRIMETHAMINE], in the series with Plasma [1], the “Cp(f)” value worked out at 0.3 µM. This molecule came in with a concentration in the series on Plasma [2] of 3.7 µM. The pKi in series [3] is 5.44; in series [4] it was 6.84.
